The values below come from patent publication US9273033B2, “Substituted pyridone derivatives as PDE10 inhibitors” (Merck Sharp & Dohme Corp., priority 2012, dated 2016).

Molecules are shown by their SMILES.

The Ki is the dissociation constant of the complex between target and ligand, obtained from inhibition or displacement.

human PDE10A2, sequence (Q9Y233 267-1055): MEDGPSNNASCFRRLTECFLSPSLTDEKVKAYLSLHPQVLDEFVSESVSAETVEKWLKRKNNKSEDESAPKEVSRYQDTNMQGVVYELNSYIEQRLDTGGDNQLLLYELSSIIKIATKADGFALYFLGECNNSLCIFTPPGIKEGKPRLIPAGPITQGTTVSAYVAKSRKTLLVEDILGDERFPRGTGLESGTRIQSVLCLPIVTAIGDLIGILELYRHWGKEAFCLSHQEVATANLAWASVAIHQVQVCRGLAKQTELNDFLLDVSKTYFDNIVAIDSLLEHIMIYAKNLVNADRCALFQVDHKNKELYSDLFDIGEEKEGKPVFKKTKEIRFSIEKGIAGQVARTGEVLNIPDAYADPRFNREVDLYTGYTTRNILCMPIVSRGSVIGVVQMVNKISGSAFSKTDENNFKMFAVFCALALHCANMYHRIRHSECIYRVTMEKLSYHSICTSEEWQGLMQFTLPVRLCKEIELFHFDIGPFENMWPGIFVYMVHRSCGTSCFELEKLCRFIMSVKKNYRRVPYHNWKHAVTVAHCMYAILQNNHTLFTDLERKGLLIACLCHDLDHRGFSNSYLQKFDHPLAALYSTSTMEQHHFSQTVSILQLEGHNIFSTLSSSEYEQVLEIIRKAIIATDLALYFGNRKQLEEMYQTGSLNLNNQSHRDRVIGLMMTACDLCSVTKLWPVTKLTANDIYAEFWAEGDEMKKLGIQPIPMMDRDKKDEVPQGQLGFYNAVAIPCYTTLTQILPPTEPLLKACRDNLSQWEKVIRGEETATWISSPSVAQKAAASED

The experiment deals with human PDE10A2 (Homo sapiens (Human), UniProt Q9Y233). Briefly: PDE10 fluorescence polarization (IMAP FP) inhibition assay. In kind it is biochemical. As to conditions: human PDE10A2, FAM-labeled cAMP substrate, read-out: PDE10A Ki. The method, then:
The activity of the compounds in accordance with the present invention as PDE10 inhibitors may be readily determined without undue experimentation using a fluorescence polarization (FP) methodology that is well known in the art (Huang, W., et al., J. Biomol Screen, 2002, 7: 215).
In a typical experiment the PDE10 inhibitory activity of the compounds of the present invention was determined in accordance with the following experimental method. PDE10A2 was amplified from human fetal brain cDNA (Clontech, Mountain View, Calif.) using a forward primer corresponding to nucleotides 56-77 of human PDE10A2 (Accession No. AF127480, Genbank Identifier 4894716), containing a Kozak consensus sequence, and a reverse primer corresponding to nucleotides 2406-2413 of human PDE10A2 (Accession No. AF127480, Genbank Identifier 4894716). Amplification with Easy-A polymerase (Stratagene, La Jolla, Calif.) was 95° C. for 2 minutes followed by thirty three cycles of 95° C. for 40 seconds, 55° C. for 30 seconds, and 72° C. for 2 minutes 48 seconds. Final extension was 72° C. for 7 minutes. The PCR product was TA cloned into pcDNA3.2-TOPO (Invitrogen, Carlsbad, Calif.) according to standard protocol. AD293 cells with 70-80% confluency were transiently transfected with human PDE10A2/pcDNA3.2-TOPO using Lipofectamine 2000 according to manufacturer specifications (Invitrogen, Carlsbad, Calif.). Cells were harvested 48 hours post-transfection and lysed by sonication (setting 3, 10×5 sec pulses) in a buffer containing 20 mM HEPES, 1 mM EDTA and protease inhibitor cocktail (Roche). Lysate was collected by centrifugation at 75,000×g for 20 minutes. Supernatant containing the cytoplasmic fraction was used for evaluation of PDE10A2 activity. The fluorescence polarization assay for cyclic nucleotide phosphodiesterases was performed using an IMAP® FP kit supplied by Molecular Devices, Sunnyvale, Calif. (product # R8139). IMAPU technology has been applied previously to phosphodiesterase assays (Huang, W., et al., J. Biomol Screen, 2002, 7: 215). Assays were performed at room temperature in 384-well microtiter plates with an incubation volume of 20.2 μL. Solutions of test compounds were prepared in DMSO and serially diluted with DMSO to yield 8 μL of each of 10 solutions differing by 3-fold in concentration, at 32 serial dilutions per plate. 100% inhibition is determined using a known PDE10 inhibitor, which can be any compound that is present at 5,000 times its Ki value in the assay described as follows, such as papaverine (see Siuciak, et al. Neuropharmacology (2006) 51:386-396; Becker, et al. Behav Brain Res (2008) 186(2):155-60; Threlfell, et al., J Pharmacol Exp Ther (2009) 328(3):785-795), 2-{4-[pyridin-4-yl-1-(2,2,2-trifluoroethyl)-1H-pyrazol-3-yl]phenoxymethyl}quinoline succinic acid or 2-[4-(1-methyl-4-pyridin-4-yl-1H-pyrazol-3-yl)-phenoxymethyl]quinoline succinic acid (see Schmidt, et al. J Pharmacol Exp Ther (2008) 325:681-690; Threlfell, et al., J Pharmacol Exp Ther (2009) 328(3): 785-795). 0% of inhibition is determined by using DMSO (1% final concentrations).
A Labcyte Echo 555 (Labcyte, Sunnyvale, Calif.) is used to dispense 200 nL from each well of the titration plate to the 384 well assay plate. A solution of enzyme (1/1600 dilution from aliquots; sufficient to produce 20% substrate conversion) and a separate solution of FAM-labeled cAMP PDE from Molecular Devices (product # R7506), at a final concentration of 50 nM are made in the assay buffer (10 mM Tris HCl, pH 7.2, 10 mM MgCl2, 0.05% NaN3 0.01% Tween-20, and 1 mM DTT). The enzyme and the substrate are then added to the assay plates in two consecutive additions of 10 μL, and then shaken to mix. The reaction is allowed to proceed at room temperature for 30 minutes. A binding solution is then made from the kit components, comprised of 80% Solution A, 20% Solution B and binding reagent at a volume of 1/600 the total binding solution.
In the case of `COc1ccc([C@H]2C[C@@H]2COc2nc(C)ncc2-c2ccc(=O)n(C(C)C)c2)nc1` [Example 21, 1-isopropyl-5-(4-(((1S,2S)-2-(5-methoxypyridin-2-yl)cyclopropyl)methoxy)-2-methylpyrimidin-5-yl)pyridin-2(1H)-one], the Ki was determined as 0.827 nM. For the compound `COc1ccc([C@H]2C[C@@H]2COc2nc(C)ncc2-c2ccc(=O)n(OC)c2)nc1` [Example 22, 1-methoxy-5-(4-(((1S,2S)-2-(5-methoxypyridin-2-yl)cyclopropyl)methoxy)-2-methylpyrimidin-5-yl)pyridin-2(1H)-one], the Ki is 1.9 nM.

For `Cc1ccc([C@H]2C[C@@H]2COc2nc(C)ncc2-c2ccc(=O)n(C3CC3)c2)nc1` [Example 23, 1-cyclopropyl-5-(2-methyl-4-(((1S,2S)-2-(5-methylpyridin-2-yl)cyclopropyl)methoxy)pyrimidin-5-yl)pyridin-2(1H)-one], the Ki is 0.519 nM. With `CCn1cc(-c2cnc(C)nc2OC[C@H]2C[C@@H]2c2ccc(OC)cn2)ccc1=O` [Example 24, 1-ethyl-5-(4-(((1S,2S)-2-(5-methoxypyridin-2-yl)cyclopropyl)methoxy)-2-methylpyrimidin-5-yl)pyridin-2(1H)-one], the Ki is 1.07 nM. On to `Cc1ccc([C@H]2C[C@@H]2COc2nc(C)ncc2-c2cc(F)c(=O)n(C)c2)nc1` [Example 25, 3-fluoro-1-methyl-5-(2-methyl-4-(((1S,2S)-2-(5-methylpyridin-2-yl)cyclopropyl)methoxy)pyrimidin-5-yl)pyridin-2(1H)-one], for which the Ki amounted to 1.55 nM.

Take `COc1ccc([C@H]2C[C@@H]2COc2nc(C)ncc2-c2ccc(=O)n(C)c2C)nc1` [Example 27, 5-(4-(((1S,2S)-2-(5-methoxypyridin-2-yl)cyclopropyl)methoxy)-2-methylpyrimidin-5-yl)-1,6-dimethylpyridin-2(1H)-one]: the Ki stood at 0.113 nM. Then `Cc1ccc([C@H]2C[C@@H]2COc2nc(C)ncc2-c2ccc(=O)n(C)c2)nc1` [Example 28, 1-methyl-5-(2-methyl-4-(((1S,2S)-2-(5-methylpyridin-2-yl)cyclopropyl)methoxy)pyrimidin-5-yl)pyridin-2(1H)-one], with 2.04 nM; and `Cc1ncc(-c2ccc(=O)n(C)c2)c(OC[C@H]2C[C@@H]2c2ccc3ccccc3n2)n1` [Example 29, 1-methyl-5-(2-methyl-4-(((1S,2S)-2-(quinolin-2-yl)cyclopropyl)methoxy)pyrimidin-5-yl)pyridin-2(1H)-one], with 0.052 nM; and `COCCn1c(C)c(-c2cnc(C)nc2OC[C@H]2C[C@@H]2c2ccc(OC)cn2)ccc1=O` [Example 30, 1-(2-methoxyethyl)-5-(4-(((1S,2S)-2-(5-methoxypyridin-2-yl)cyclopropyl)methoxy)-2-methylpyrimidin-5-yl)-6-methylpyridin-2(1H)-one], with 1.46 nM. The result for `COCCn1c(C)c(-c2cnc(C)nc2OC[C@H]2C[C@@H]2c2ccc3ccccc3n2)ccc1=O` [Example 31, 1-(2-methoxyethyl)-6-methyl-5-(2-methyl-4-(((1S,2S)-2-(quinolin-2-yl)cyclopropyl)methoxy)pyrimidin-5-yl)pyridin-2(1H)-one] reads 0.045 nM.

Turning to `CCn1cc(-c2cnc(C)nc2OC[C@H]2C[C@@H]2c2ccc3ccccc3n2)ccc1=O` [Example 32, 1-ethyl-5-(2-methyl-4-(((1S,2S)-2-(quinolin-2-yl)cyclopropyl)methoxy)pyrimidin-5-yl)pyridin-2(1H)-one], the Ki was determined as 0.024 nM. Take `CCn1c(C)c(-c2cnc(C)nc2OC[C@H]2C[C@@H]2c2ccc(OC)cn2)ccc1=O` [Example 33, 1-ethyl-5-(4-(((1S,2S)-2-(5-methoxypyridin-2-yl)cyclopropyl)methoxy)-2-methylpyrimidin-5-yl)-6-methylpyridin-2(1H)-one]: the Ki turned out to be 1.78 nM.

With `Cc1ncc(-c2ccc(=O)n(C)c2C)c(OC[C@H]2C[C@@H]2c2ccc3ccccc3n2)n1` [Example 34, 1,6-dimethyl-5-(2-methyl-4-(((1S,2S)-2-(quinolin-2-yl)cyclopropyl)methoxy)pyrimidin-5-yl)pyridin-2(1H)-one], the Ki was found to be 0.006 nM.

Consider `CCn1cc(-c2cnc(C)nc2OC[C@H]2C[C@@H]2c2ccc(OC)cn2)cc(C)c1=O` [Example 35, 1-ethyl-5-(4-(((1S,2S)-2-(5-methoxypyridin-2-yl)cyclopropyl)methoxy)-2-methylpyrimidin-5-yl)-3-methylpyridin-2(1H)-one], for which the Ki was 0.381 nM.

Turning to `CCn1c(C)c(-c2cnc(C)nc2OC[C@H]2C[C@@H]2c2ccc3ccccc3n2)ccc1=O` [Example 36, 1-ethyl-6-methyl-5-(2-methyl-4-(((1S,2S)-2-(quinolin-2-yl)cyclopropyl)methoxy)pyrimidin-5-yl)pyridin-2(1H)-one], the inhibition constant Ki is 0.045 nM. `Cc1ccc([C@H]2C[C@@H]2COc2nc(C)ncc2-c2ccc(=O)n(C(C)C)c2C)nc1` [Example 37, 1-isopropyl-6-methyl-5-(2-methyl-4-(((1S,2S)-2-(5-methylpyridin-2-yl)cyclopropyl)methoxy)pyrimidin-5-yl)pyridin-2(1H)-one]: the Ki was 4.27 nM. As for `COc1ccc([C@H]2C[C@@H]2COc2nc(C)ncc2-c2cc(C)c(=O)n(C)c2)nc1` [Example 38, 5-(4-(((1S,2S)-2-(5-methoxypyridin-2-yl)cyclopropyl)methoxy)-2-methylpyrimidin-5-yl)-1,3-dimethylpyridin-2(1H)-one], the Ki is 0.727 nM. Then `COCCn1cc(-c2cnc(C)nc2OC[C@H]2C[C@@H]2c2ccc(OC)cn2)ccc1=O` [Example 39, 1-(2-methoxyethyl)-5-(4-(((1S,2S)-2-(5-methoxypyridin-2-yl)cyclopropyl)methoxy)-2-methylpyrimidin-5-yl)pyridin-2(1H)-one], with 0.821 nM; and `Cc1ccc([C@H]2C[C@@H]2COc2nc(C)ncc2-c2cc(C)c(=O)n(C)c2)nc1` [Example 40, 1,3-dimethyl-5-(2-methyl-4-(((1S,2S)-2-(5-methylpyridin-2-yl)cyclopropyl)methoxy)pyrimidin-5-yl)pyridin-2(1H)-one], with 0.409 nM. As for `CCn1cc(-c2cnc(C)nc2OC[C@H]2C[C@@H]2c2ccc(C)cn2)cc(C)c1=O` [Example 41, 1-ethyl-3-methyl-5-(2-methyl-4-(((1S,2S)-2-(5-methylpyridin-2-yl)cyclopropyl)methoxy)pyrimidin-5-yl)pyridin-2(1H)-one], the Ki came to 0.533 nM. Take `Cc1ncc(-c2ccc(=O)n(C)c2)c(OC[C@H]2C[C@@H]2c2ccc3c(n2)CCC3)n1` [Example 42, 5-(4-(((1S,2S)-2-(6,7-dihydro-5H-cyclopenta[b]pyridin-2-yl)cyclopropyl)methoxy)-2-methylpyrimidin-5-yl)-1-methylpyridin-2(1H)-one]: the Ki stood at 0.531 nM.

Turning to `Cc1ccc([C@H]2C[C@@H]2COc2nc(C)ncc2-c2ccc(=O)n(CC(F)F)c2)nc1` [Example 43, 1-(2,2-difluoroethyl)-5-(2-methyl-4-(((1S,2S)-2-(5-methylpyridin-2-yl)cyclopropyl)methoxy)pyrimidin-5-yl)pyridin-2(1H)-one], the Ki came out at 2.56 nM. Consider `COc1ccc([C@H]2C[C@@H]2COc2nc(C)ncc2-c2ccc(=O)n(CC(F)F)c2)nc1` [Example 44, 1-(2,2-difluoroethyl)-5-(4-(((1S,2S)-2-(5-methoxypyridin-2-yl)cyclopropyl)methoxy)-2-methylpyrimidin-5-yl)pyridin-2(1H)-one], for which the Ki was determined as 2.3 nM.
